From US20240208934A1, “ULK1/2 INHIBITORS AND THEIR USE THEREOF” (LifeArc, priority 2021, published 2024)

Test system: ULK
Assay: ULK radiometric assay (33P incorporation onto MBP substrate, glass fiber capture filter)
Conditions: ULK Biochemical activity; 20 uM ATP, 0.2 mg/mL MBP; averages of at least two independent experiments
Method: ULK activity was measured using a radiometric assay, to measure the incorporation of radiolabelled ^33P onto MBP substrate using a glass fiber capture filter method. Reaction conditions were 0.2 mg/mL MBP, 20 uM ATP (0.25 μCi/well), 50 mM Tris HCl, pH7.5, 10 mM MgCl2, 0.1% beta-mercaptoethanol, 0.1 mM EGTA, 0.01% BSA. Ten point Half log Compound dilution series were prepared in 100% DMSO and added to the reaction to give final assay concentration of 10% DMSO. Compounds were tested in duplicate and values normalized to 10% DMSO only controls. The data were fitted to a four parameter fit equation and the IC50 values shown are averages of at least two independent experiments.

SMILES	IC50 [nM]
COc1cc(C(=O)O)ccc1Nc1ncc(C(F)(F)F)c(NCCCN2CCCCC2=O)n1 [Example 36, 3-Methoxy-4-[[4-[3-(2-oxo-1-piperidyl)propylamino]-5-(trifluoromethyl)pyrimidin-2-yl]amino]benzoic acid]	≥ 1000
COc1nn(CCN(C)C)cc1Nc1ncc(C(F)(F)F)c(NCCCN2CCCCC2=O)n1 [Example 3, 1-(3-((2-((1-(2-(Dimethylamino)ethyl)-3-methoxy-1H-pyrazol-4-yl)amino)-5-(trifluoromethyl)pyrimidin-4-yl)amino)propyl) piperidin-2-one]	< 200
COc1cc2c(cc1Nc1ncc(C(F)(F)F)c(N3CCC(NC(C)=O)CC3)n1)CNCC2 [Example 71, N-[1-[2-[(6-methoxy-1,2,3,4-tetrahydroisoquinolin-7-yl)amino]-5-(trifluoromethyl)pyrimidin-4-yl]-4-piperidyl]acetamide]	≥ 1000
FC(F)(F)c1cnc(Nc2ccc(CCN3CCCC3)cc2)nc1NCc1cc[nH]n1 [Example 86, N4-(1H-pyrazol-3-ylmethyl)-N2-[4-(2-pyrrolidin-1-ylethyl)phenyl]-5-(trifluoromethyl)pyrimidine-2,4-diamine]	200 to 1000
CNC(=O)c1ccc(Nc2ncc(C(F)(F)F)c(NCCCN3CCCCC3=O)n2)c(OC)c1 [Example 39, 3-Methoxy-N-methyl-4-[[4-[3-(2-oxo-1-piperidyl)propylamino]-5-(trifluoromethyl)pyrimidin-2-yl]amino]benzamide]	≥ 1000
CC(=O)N1CCc2cc(Cl)c(Nc3ncc(C(F)(F)F)c(NCCCN4CCCCC4=O)n3)cc2C1 [Example 56, 1-[3-[[2-[(2-Acetyl-6-chloro-3,4-dihydro-1H-isoquinolin-7-yl)amino]-5-(trifluoromethyl)pyrimidin-4-yl]amino]propyl]piperidin-2-one]	200 to 1000
COc1cc2c(cc1Nc1ncc(C(F)(F)F)c(NCC3CNCCO3)n1)CNCC2 (stereo not drawn) [Example 78, N2-(6-methoxy-1,2,3,4-tetrahydroisoquinolin-7-yl)-N4-(morpholin-2-ylmethyl)-5-(trifluoromethyl)pyrimidine-2,4-diamine]	200 to 1000
CN1CCc2ccc(Nc3ncc(C4CC4)c(NC4CC4)n3)cc2C1 [Example 18, N4,5-dicyclopropyl-N2-(2-methyl-1,2,3,4-tetrahydroisoquinolin-7-yl)pyrimidine-2,4-diamine]	< 200
FC(F)(F)c1cnc(Nc2ccc(N3CCOCC3)cc2)nc1NCCc1c[nH]cn1 [Example 91, N4-[2-(1H-imidazol-4-yl)ethyl]-N2-(4-morpholinophenyl)-5-(trifluoromethyl)pyrimidine-2,4-diamine]	200 to 1000
CN(C)Cc1cccc(Nc2ncc(C3CC3)c(NCCCN3CCCCC3=O)n2)c1 [Example 13, 1-(3-(5-Cyclopropyl-2-(3-((dimethylamino)methyl)phenylamino)pyrimidin-4-ylamino)propyl) piperidin-2-one]	< 200
CCN(CC)C(=O)C1CCCN(c2nc(Nc3cc4c(cc3OC)CCNC4)ncc2C(F)(F)F)C1 (stereo not drawn) [Example 69, N,N-diethyl-1-[2-[(6-methoxy-1,2,3,4-tetrahydroisoquinolin-7-yl)amino]-5-(trifluoromethyl)pyrimidin-4-yl]piperidine-3-carboxamide]	≥ 1000
O=C(CCNc1nc(Nc2cccc(OC3CCNCC3)c2)ncc1C(F)(F)F)N1CCOCC1 [Example 80, 1-Morpholino-3-[[2-[3-(4-piperidyloxy)anilino]-5-(trifluoromethyl)pyrimidin-4-yl]amino]propan-1-one]	200 to 1000
CN1CCc2cc(Nc3ncc(C(F)(F)F)c(NCCCN4CCCC4)n3)ccc2C1 [Example 6, N2-(2-methyl-1,2,3,4-tetrahydroisoquinolin-6-yl)-N4-(3-(pyrrolidin-1-yl)propyl)-5-(trifluoromethyl)pyrimidine-2,4-diamine]	200 to 1000
O=C1CCCCN1CCCNc1nc(Nc2cc(O)ccc2Cl)ncc1C(F)(F)F [Example 57, 1-[3-[[2-(2-Chloro-5-hydroxy-anilino)-5-(trifluoromethyl)pyrimidin-4-yl]amino]propyl]piperidin-2-one]	200 to 1000
FC(F)(F)c1cnc(Nc2ccc(N3CCOCC3)cc2)nc1NCCC1CCNCC1 [Example 89, N2-(4-morpholinophenyl)-N4-[2-(4-piperidyl)ethyl]-5-(trifluoromethyl)pyrimidine-2,4-diamine]	200 to 1000
COc1cc(C(=O)NC2CCNCC2)ccc1Nc1ncc(C(F)(F)F)c(NCCCN2CCCCC2=O)n1 [Example 42, 3-Methoxy-4-[[4-[3-(2-oxo-1-piperidyl)propylamino]-5-(trifluoromethyl)pyrimidin-2-yl]amino]-N-(4-piperidyl)benzamide]	200 to 1000
O=C(NCCCNc1nc(Nc2ccc3c(c2)CCNC3)ncc1C(F)(F)F)C1CCC1 [Example 62, N-(3-((2-((1,2,3,4-tetrahydroisoquinolin-6-yl)amino)-5-(trifluoromethyl)pyrimidin-4-yl)amino)propyl)cyclobutanecarboxamide]	< 200

SMILES	IC50 [nM]
COc1nn(CCN2CCOCC2)cc1Nc1ncc(C(F)(F)F)c(NCCCN2CCCCC2=O)n1 [Example 53, 1-[3-[[2-[[3-Methoxy-1-(2-morpholinoethyl)pyrazol-4-yl]amino]-5-(trifluoromethyl)pyrimidin-4-yl]amino]propyl]piperidin-2-one]	≥ 1000
COc1cc2c(cc1Nc1ncc(C(F)(F)F)c(NC3CCN(S(C)(=O)=O)CC3)n1)CNCC2 [Example 72, N2-(6-methoxy-1,2,3,4-tetrahydroisoquinolin-7-yl)-N4-(1-methylsulfonyl-4-piperidyl)-5-(trifluoromethyl)pyrimidine-2,4-diamine]	≥ 1000
CN(C)CCOc1ccc(Cl)c(Nc2ncc(C(F)(F)F)c(NCCCN3CCCCC3=O)n2)c1 [Example 58, 1-[3-[[2-[2-Chloro-5-[2-(dimethylamino)ethoxy]anilino]-5-(trifluoromethyl)pyrimidin-4-yl]amino]propyl]piperidin-2-one]	200 to 1000
CN1CCc2ccc(Nc3ncc(C4CC4)c(NCCCN4CCCC4=O)n3)cc2C1 [Example 10, 1-(3-((5-Cyclopropyl-2-((2-methyl-1,2,3,4-tetrahydroisoquinolin-7-yl)amino)pyrimidin-4-yl)amino)propyl)pyrrolidin-2-one]	< 200
CC(C)Oc1nn(C)cc1Nc1ncc(C(F)(F)F)c(NCCCN2CCCCC2=O)n1 [Example 49, 1-[3-[[2-[(3-Isopropoxy-1-methyl-pyrazol-4-yl)amino]-5-(trifluoromethyl)pyrimidin-4-yl]amino]propyl]piperidin-2-one]	≥ 1000
COc1ccccc1Nc1ncc(C(F)(F)F)c(NCCCN2CCCCC2=O)n1 [Example 30, 1-[3-[[2-(2-Methoxyanilino)-5-(trifluoromethyl)pyrimidin-4-yl]amino]propyl]piperidin-2-one]	≥ 1000
CN(C)CCCN(C)c1nc(Nc2ccc3c(c2)CCNC3)ncc1C(F)(F)F [Example 64, N4-[3-(dimethylamino)propyl]-N4-methyl-N2-(1,2,3,4-tetrahydroisoquinolin-6-yl)-5-(trifluoromethyl)pyrimidine-2,4-diamine]	200 to 1000
COc1cc2c(cc1Nc1ncc(C(F)(F)F)c(NCCCN3CCCCC3=O)n1)C(=O)NCC2 [Example 33, 6-Methoxy-7-[[4-[3-(2-oxo-1-piperidyl)propylamino]-5-(trifluoromethyl)pyrimidin-2-yl]amino]-3,4-dihydro-2H-isoquinolin-1-one]	≥ 1000
COCc1ccc(Nc2ncc(C(F)(F)F)c(NCCCN3CCCCC3=O)n2)c(OC)c1 [Example 34, 1-[3-[[2-[2-Methoxy-4-(methoxymethyl)anilino]-5-(trifluoromethyl)pyrimidin-4-yl]amino]propyl]piperidin-2-one]	≥ 1000
O=C1CCCCN1CCCNc1nc(Nc2cc3c(cc2Cl)CCNC3)ncc1C(F)(F)F [Example 43, 1-[3-[[2-[(6-Chloro-1,2,3,4-tetrahydroisoquinolin-7-yl)amino]-5-(trifluoromethyl)pyrimidin-4-yl]amino]propyl]piperidin-2-one]	< 200
O=C1CCCCN1CCCNc1nc(Nc2ccc(N3CCOCC3)cc2Cl)ncc1C(F)(F)F [Example 54, 1-[3-[[2-(2-Chloro-4-morpholino-anilino)-5-(trifluoromethyl)pyrimidin-4-yl]amino]propyl]piperidin-2-one]	< 200
CCOc1cc2c(cc1Nc1ncc(C(F)(F)F)c(NCCCN3CCCCC3=O)n1)CNCC2 [Example 21, 1-[3-[[2-[(6-Ethoxy-1,2,3,4-tetrahydroisoquinolin-7-yl)amino]-5-(trifluoromethyl)pyrimidin-4-yl]amino]propyl]piperidin-2-one]	< 200
O=C1CCCCN1CCCNc1nc(Nc2cc(S(=O)(=O)N3CCOCC3)cc3c2OCC3)ncc1C(F)(F)F [Example 51, 1-[3-[[2-[(5-Morpholinosulfonyl-2,3-dihydrobenzofuran-7-yl)amino]-5-(trifluoromethyl)pyrimidin-4-yl]amino]propyl]piperidin-2-one]	≥ 1000
O=C1CCCCN1CCCNc1nc(Nc2cc(CO)ccc2Cl)ncc1C(F)(F)F [Example 26, 1-[3-[[2-[2-Chloro-5-(hydroxymethyl)anilino]-5-(trifluoromethyl)pyrimidin-4-yl]amino]propyl]piperidin-2-one]	< 200
COc1ccc(N2CCNCC2)cc1Nc1ncc(C(F)(F)F)c(NCCCN2CCCCC2=O)n1 [Example 22, 4-[4-methoxy-3-[[4-[3-(2-oxo-1-piperidyl)propylamino]-5-(trifluoromethyl)pyrimidin-2-yl]amino]phenyl]piperazine]	≥ 1000
COc1cc2c(cc1Nc1ncc(C(F)(F)F)c(NCCCN3CCCCC3=O)n1)C(=O)N(C)C2 [Example 37, 5-Methoxy-2-methyl-6-[[4-[3-(2-oxo-1-piperidyl)propylamino]-5-(trifluoromethyl)pyrimidin-2-yl]amino]isoindolin-1-one]	≥ 1000
